Measured values: patent US12427195B1, “Methods of neoantigen identification” (La Jolla Institute for Immunology, priority 2019, dated 2025)

Key:
[1] = system: E6+HLA-A*02:01+ tumor line (Caski); test: Dynamic monitoring of killing of Caski tumor line; assay type: cell-based; settings: Caski cells
From the text: (§1) FIG. 16B depicts dynamic monitoring of E6^+HLA-A*02:01^+tumor line (Caski) to assess the capacity of the engineered TCR to specifically kill tumor lines expressing the HPV E6 protein at 10:1 effector to target ratio. […] To assess non-specific (alloreactivity) background killing by the CD8 T cells, the growth of CD8 T cells that were stimulated and expanded but NOT subjected to CRISPR or LV editing are represented by Curve 3.

[2] = system: patient-derived cancer line expressing the HPV E6 protein; test: Dynamic monitoring of killing of patient-derived cancer line; assay type: cell-based, human
From the text: as §1, with “16A” for “16B”, “patient-derived cancer” for “E6^+HLA-A*02:01^+tumor”, “line” for “line (Caski)”, “the” for “the engineered”, “not” for “NOT”

## N.N.[Cl][Pt][Cl] [cisplatin]
[1]
  time to kill tumor line: ≤ 48 h
[2]
  time to kill tumor line: ≤ 48 h
